Measured values: publication PMC12067444, “Synthesis and Pharmacological Characterization of Novel Peripheral Cannabinoid-1 Receptor Blockers Based on a Tricyclic Scaffold” (Journal of Medicinal Chemistry, 2025)
Where two headings read alike, the source gives them in different places.

Tests used:
mice = experiment: Cataleptic behavior (bar test) induced by WIN-55,212; type: in vivo, mouse; conditions: rimonabant 10 mg/kg PO, BNS808 1 mg/kg; 30 min before WIN-55,212 3 mg/kg IP; bar test at 60 min
Method: Catalepsy was assayed using the bar test. Mice were taken out of their home cages, and their forepaws were placed on a horizontal bar measuring 0.5 cm in diameter, positioned 4 cm above the bench surface. Typically, vehicle-treated mice released the bar within 2 s. Cataleptic behavior was defined as the mice remaining motionless, grasping onto the bar, with an arbitrary cutoff of 30 s. The CB1R antagonists, including rimonabant at doses 1 and 10 mg/kg and BNS808 at a dose of 1 mg/kg, were administered 30 min before the IP injection of 3 mg/kg WIN-55,212 (a CB1R agonist). The test was conducted 60 min after the administration of the agonist.

[1] = Brain compound levels in the CNS side-effect study (Figure 2H); type: in vivo; conditions: male, C57Bl/6J, mouse, brain; rimonabant 10 mg/kg PO, 1 h after administration
Method: The ability of BNS808 and rimonabant (as a positive control) to induce centrally mediated hyperactivity in mice (A–C). Wild-type, male, C57Bl/6J mice received a single dose of rimonabant (10 mg/kg, PO), BNS808 (1 or 10 mg/kg, PO) or vehicle, and the Promethion High-Definition Behavioral Phenotyping System monitored the activity profile. In addition, the ability of BNS808 and rimonabant (as a positive control) to inhibit the hypomotility induced by a CB1R receptor agonist (HU210; 30 μg/kg, IP) was tested in wild-type, male, C57Bl/6J mice which received a single dose of rimonabant (10 mg/kg, PO) or BNS808 (1 or 10 mg/kg, PO) or vehicle (D–F). […] Data represent the mean ± SEM from 4 to 8 mice per group. *P < 0.05 vs Vehicle-treated control. ^#P < 0.05 vs rimonabant.

[2] = Tissue distribution after acute oral administration; type: in vivo, mouse; conditions: male, C57Bl/6J, mouse, 1 mg/kg PO, 1 h post-acute administration
Method: Male C57Bl/6J mice aged 7–9 weeks (3–4 mice per compound) were fasted overnight before administering each test compound. The compounds were accurately weighed and mixed with an appropriate vehicle to prepare a clear oral solution. The formulations were freshly prepared on the dosing day, and the mice were administered the compound via oral gavage within 4 h of formulation preparation. 1, 2, 4, and 8 h after compound administration, the mice were euthanized, and approximately 200 μL of blood was collected via cardiac puncture for plasma preparation. Brain and liver tissues were harvested and processed for analysis. Sample analysis was performed using LC-MS/MS, as described in detail in the SI. […]
calculated using the equation:
Lucif er yellow = VV bbbbbbbbbbbbbbbbbbbb ×RR FFFF bbbbbbbbbbbbbbbbbbbb ×100 […]
Measurements of BNS808 using LC-MS/MS. MS/MS analyses were conducted using a Sciex QTRAP® 6500+ mass spectrometer (Framingham, MA, USA). Air was […]
Infinity 1031 nitrogen generator (Peak Scientific, Inchinnan, Scotland). Purified air […]
generator to ensure a continuous and stable air supply.

Kp at 1 h ([2]; brain / plasma, read-out: brain-to-plasma (B/P) ratio): 4.28 | concentration at 1 h ([2]; brain, read-out: brain concentration): 128 ng/g | Kp at 1 h ([2]; liver / plasma, read-out: liver/plasma (L/P) ratio): 7.4 | concentration at 1 h ([2]; liver, read-out: liver concentration): 226 ng/g | concentration at 1 h ([2]; plasma, read-out: plasma concentration): 30 ng/mL
SMILES: Cc1c(C(=O)NN2CCCCC2)nn(-c2ccc(Cl)cc2Cl)c1-c1ccc(Cl)cc1 [rimonabant]
blockade of WIN-55,212-induced cataleptic behavior (mice): blocked the cataleptic behavior | concentration at 1 h [1]: 600 ng/g
